Experimental data taken from ChEMBL document CHEMBL1156519, “Roles for two aminopeptidases in vacuolar hemoglobin catabolism in Plasmodium falciparum” (J Biol Chem, 2007).
Calls of active or inactive are those of the source. The calls are words filed in the database; no cut-off is given here. Peptide text beside a SMILES is read from it. * marks the point of attachment. CH2F = FC*

Key:
[1] = Inhibition of DPAP1 assessed as blocking of release of beta-naphthylamine from Ala-Pro-Ala-betaNA substrate at 1 uM in presence of recombinant Plasmodium falciparum aminopeptidase P
[2] = tested on: Plasmodium falciparum; test: Antimalarial activity as inhibition of Plasmodium falciparum 3D7 replication in medium + isoleucine after 65 hrs; type: functional, organism-based; conditions: 3D7, 65 h
[3] = tested on: Plasmodium falciparum; test: Antimalarial activity as inhibition of Plasmodium falciparum 3D7 replication in medium with all amino acids after 65 hrs; type: functional, organism-based; conditions: 3D7, 65 h
[4] = tested on: Plasmodium falciparum; test: Antimalarial activity as DNA content of ring stage Plasmodium falciparum 3D7 in medium + isoleucine by flow cytometry; type: functional, organism-based
[5] = tested on: Plasmodium falciparum; test: Antimalarial activity as DNA content of ring stage Plasmodium falciparum 3D7 in medium with all amino acids by flow cytometry; type: functional, organism-based
[6] = tested on: Plasmodium falciparum; test: Inhibition of aminopeptidase N in Plasmodium falciparum food vacuole extract
[7] = Inhibition of DPAP1 assessed as blocking of release of beta-naphthylamine from Ala-Pro-Ala-betaNA substrate at 1 uM

| Activity [1] | EC50 [2] | EC50 [3] | Activity [6] | Activity [7] | SMILES | Activity [4] | Activity [5] |
| --- | --- | --- | --- | --- | --- | --- | --- |
| inactive | 0.9 µM | 1.8 µM | Active | inactive | CC(C)C[C@H](NC(=O)[C@@H](O)[C@H](N)Cc1ccccc1)C(=O)O [UBENIMEX] | Active | Active |
| Active |  |  |  | Active | N=C(N)NCCC[C@H](NC(=O)[C@@H]1CCCN1)C(=O)CF (H-Pro-Arg-CH2F) |  |  |
|  |  |  |  | inactive | CC(C)CC(=O)N[C@H](C(=O)N[C@H](C(=O)N[C@@H](CC(C)C)[C@@H](O)CC(=O)N[C@@H](C)C(=O)N[C@@H](CC(C)C)[C@@H](O)CC(=O)O)C(C)C)C(C)C |  |  |
| inactive |  |  |  | inactive | CC(C)C[C@H](NC(=O)[C@H]1O[C@@H]1C(=O)O)C(=O)NCCCCN=C(N)N |  |  |
